# Data as given in patent publication US20230212129A1, “QUINAZOLINE DERIVATIVES USEFUL AS SELECTIVE HDAC6 INHIBITORS” (AnnJi Pharmaceutical Co., Ltd., priority 2020, published 2023).
# What was measured:
# [1] = test system: dorsal root ganglion (DRG) cells; test: DRG neurite outgrowth after paclitaxel-induced damage; format: cell-based, C57BL/6J mice; conditions: 0.1 μM and 1 μM, 24 hours prior to 24-hour 0.1 μM paclitaxel; FIG. 1
# Description: (§1) To investigate the effect of HDAC6 inhibitors in neuron protection and neuron regeneration, the recovery of dorsal root ganglion (DRG) cells post-paclitaxel injury was tested. Dorsal root ganglion was extracted from 7 week-old female C57BL/6J mice and incubated with HDAC6 inhibitors (compounds COMPOUND 33, COMPOUND 34, or COMPOUND 2) at the concentrations of 0.1 μM and 1 μM, or 100 ng/ml of BDNF, a neuronal growth factor (positive control), for 24 hours prior to a 24-hour incubation of 0.1 μM paclitaxel.
# The neurite was stained by pIII-tubulin.
# [2] = test system: acetylated α-tubulin (Ac-α-tub); test: Western blot of acetylated α-tubulin in primary DRG cells; format: cell-based, C57BL/6J mice; conditions: 48 hours of treatment, FIG. 2
# Description: as §1
# [3] = test system: Rat DRG cells; test: Cisplatin-induced neurite degeneration in DRG cells; format: cell-based; conditions: 0.3 μM with 0.5 mM cisplatin, 48 hours; p<0.05; FIG. 3
# Description: Rat DRG cells were used to investigate the protective effect of HDAC6 inhibitors. DRG cells were treated with 0.5 mM of cisplatin with or without 0.3 μM of COMPOUND 2 or ACY1215 for 48 hours. The neurite area and the number of blebs (cell apoptosis) per image were calculated and their ratio values among the tested groups were compared and shown in FIG. 3.
# [4] = biological target: T1, HDAC6 (Homo sapiens, UniProt Q9UBN7); test: HDAC6 activity, acetylated-AMC-labeled peptide substrate; format: biochemical
# T1 construct: GST (N); host or cells: baculovirus expression system, Sf9 insect cells
# T1 sequence (Q9UBN7 1-1215): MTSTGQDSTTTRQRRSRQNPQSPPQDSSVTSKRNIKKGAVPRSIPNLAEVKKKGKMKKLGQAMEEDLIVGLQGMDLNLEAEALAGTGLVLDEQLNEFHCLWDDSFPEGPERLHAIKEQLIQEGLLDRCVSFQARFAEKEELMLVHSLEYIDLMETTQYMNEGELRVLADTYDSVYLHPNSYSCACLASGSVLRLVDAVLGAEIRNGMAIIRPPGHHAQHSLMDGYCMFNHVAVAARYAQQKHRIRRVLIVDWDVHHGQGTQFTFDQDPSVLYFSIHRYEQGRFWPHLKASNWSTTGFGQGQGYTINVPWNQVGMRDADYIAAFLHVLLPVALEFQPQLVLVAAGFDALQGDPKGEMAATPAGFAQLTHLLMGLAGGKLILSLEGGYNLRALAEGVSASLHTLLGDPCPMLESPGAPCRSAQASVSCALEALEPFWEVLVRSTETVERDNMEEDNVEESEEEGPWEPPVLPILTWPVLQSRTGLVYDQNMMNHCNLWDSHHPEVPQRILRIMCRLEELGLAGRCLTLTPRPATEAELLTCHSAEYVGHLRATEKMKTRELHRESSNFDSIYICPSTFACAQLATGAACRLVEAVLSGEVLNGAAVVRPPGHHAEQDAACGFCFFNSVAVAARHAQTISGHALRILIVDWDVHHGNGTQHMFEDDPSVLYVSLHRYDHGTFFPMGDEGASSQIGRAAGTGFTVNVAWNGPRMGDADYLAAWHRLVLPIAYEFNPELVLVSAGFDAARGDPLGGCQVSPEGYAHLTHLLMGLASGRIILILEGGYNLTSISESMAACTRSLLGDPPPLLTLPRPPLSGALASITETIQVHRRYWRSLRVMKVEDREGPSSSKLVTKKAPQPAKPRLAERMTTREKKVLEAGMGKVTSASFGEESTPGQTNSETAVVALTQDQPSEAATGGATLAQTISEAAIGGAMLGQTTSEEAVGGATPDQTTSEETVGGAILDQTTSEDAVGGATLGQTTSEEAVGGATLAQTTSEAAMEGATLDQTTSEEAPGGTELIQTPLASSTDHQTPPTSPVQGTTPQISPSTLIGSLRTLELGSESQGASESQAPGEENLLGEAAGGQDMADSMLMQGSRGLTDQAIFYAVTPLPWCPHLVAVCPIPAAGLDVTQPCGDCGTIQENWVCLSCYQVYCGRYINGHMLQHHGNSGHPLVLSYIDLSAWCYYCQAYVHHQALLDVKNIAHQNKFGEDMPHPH
# Description: The activities of HDAC 1 and 6 were measured by using an acetylated-AMC-labeled peptide substrate, a fluorogenic peptide from p53 residues 379-382 (RHIKKAc). The proteins involved in the assay are as the followings (1) Human HIDAC1 (Genflank Accession No. NM_004964): Full length with C-terminal GST tag, MW=79.9 kDa, expressed by baculovirus expression system in SP9 cells; and (2) Human HIDAC6 (Genflank Accession No. BC069243): Full length with N-terminal GST tag, MW=159 kDa, expressed by baculovirus expression system in Sf9 cells.
structure (smiles),measurement,setting,value
"CCc1nc2cc(F)c(/C=C/C(=O)NO)cc2c(=O)n1-c1c(C)cccc1C [Compound 2, (E)-3-(3-(2,6-dimethylphenyl)-2-ethyl-7-fluoro-4-oxo-3,4-dihydroquinazolin-6-yl)-N-hydroxyacrylamide]",neurite outgrowth,[1],significantly rescued the neurite outgrowth
same,tubulin hyperacetylation,[2],tubulin hyperacetylation
same,neurite degeneration (neurite area and number of blebs ratio),[3],significantly lesser degree of neurite degeneration
same,HDAC6 selectivity (A)/(B),[4]; HDAC1 IC50 / HDAC6 IC50,2585
same,IC50,[4]; read-out: HDAC6 IC50 (B),2 nM
